Assay: Saturated concentration (solubility) of crystalline powder compound in inorganic salt aqueous solution
Type: physicochemical
Details: for Saturated concentration: 25° C., aqueous solution containing only 15 wt % of sodium chloride and 10 wt % of ammonium chloride; for Saturating concentration: 25 degrees Celsius
Protocol: The latent heat cold storage material of the present disclosure contains a crystalline powder as a supercooling inhibitor. The crystalline powder is formed of a compound having low solubility in an aqueous solution of an inorganic salt (hereinafter, also referred to as a low-solubility compound).
In the present disclosure, the “solubility” refers to a limit of an amount at which a solute is dissolved in a certain amount of a solvent. The solubility is represented by a mass (g) of the solute which is dissolved in 100 g of the solvent at a certain temperature. […] In the present disclosure, the “saturated concentration” refers to a concentration of an aqueous solution in which a solute is dissolved up to the solubility. When the limit of an amount at which a solute is dissolved in 100 g of a solvent is 20 g, the solubility is 20 g, and the saturated concentration of the solute is 16.7 wt %.

In the case of `CCCCNC(=O)NCCCC` [1,3-dibutylurea], the Saturated concentration is reported as “less than 0.08 wt %”.

With `O=C(NC1CCCCC1)NC1CCCCC1` [1,3-dicyclohexylurea] the Saturated concentration was “less than 7.0 wt %”.

With `CCNC(=O)NCC` [1,3-diethylurea] the Saturating concentration (aqueous solution containing 10 wt % of potassium chloride and 10 wt % of ammonium chloride) was 7.0 wt %, the Saturating concentration (aqueous solution containing 12.5 wt % of potassium chloride and 12.5 wt % of ammonium chloride) was “less than 7.0 wt %” and the Saturated concentration was 3.0 wt %. The “Solubility in the inorganic salt aqueous solution” value (normal temperature, inorganic salt concentration 10 to 30 wt %) was ≤ 10 wt %.
